pIC50: −log10 of the molar value.

The values below come from patent publication US20240018122A1, “PYRIDAZINYL AMINO DERIVATIVES AS ALK5 INHIBITORS” (CHIESI FARMACEUTICI S.P.A., priority 2020, published 2024).

Sequence of human ALK5 (P36897 80-503 limits assumed): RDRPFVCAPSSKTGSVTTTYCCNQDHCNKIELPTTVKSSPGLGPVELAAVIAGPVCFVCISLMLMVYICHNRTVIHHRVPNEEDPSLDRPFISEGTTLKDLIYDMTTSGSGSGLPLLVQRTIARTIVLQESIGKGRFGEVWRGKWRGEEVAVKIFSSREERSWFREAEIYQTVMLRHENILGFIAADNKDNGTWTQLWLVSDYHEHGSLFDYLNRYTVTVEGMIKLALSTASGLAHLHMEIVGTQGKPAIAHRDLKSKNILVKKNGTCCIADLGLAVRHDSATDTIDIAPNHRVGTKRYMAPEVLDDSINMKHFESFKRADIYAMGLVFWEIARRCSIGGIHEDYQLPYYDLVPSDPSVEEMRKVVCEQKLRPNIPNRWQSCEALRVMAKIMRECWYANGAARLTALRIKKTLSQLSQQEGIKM

One assay has as its target human ALK5 (Homo sapiens (Human), UniProt P36897). The experiment in a line: ADP-GLO Kinases assay, inhibitory activity on ALK5. Type of assay: biochemical.
Conditions: not given
`Cc1nnc(-c2cc(Cl)ccc2F)cc1Nc1ccnc2cc(OC(=O)N3C[C@H]4C[C@@H]3CN4C)ccc12` [Example 159, 4-{[6-(5-chloro-2-fluorophenyl)-3-methylpyridazin-4-yl]amino}quinolin-7-yl (1R,4R)-5-methyl-2,5-diazabicyclo[2.2.1]heptane-2-carboxylate] gave a pIC50 greater than 9.00. With `Cc1nnc(-c2cc(Cl)ccc2F)cc1Nc1ccnc2cc(OC(=O)N3C[C@@H]4C[C@H]3CN4C)ccc12` [Example 160, 4-{[6-(5-Chloro-2-Fluorophenyl)-3-Methylpyridazin-4-Yl]Amino}Quinolin-7-Yl (1S,4S)-5-Methyl-2,5-Diazabicyclo[2.2.1]Heptane-2-Carboxylate], the negative-log IC50 (pIC50) is greater than 9.00. Molecule `Cc1nnc(-c2cc(Cl)ccc2F)cc1Nc1ccnc2cc(OC(=O)N3CCN(CCC4CCN(C)CC4)C(C(=O)OC4COC4)C3)ccc12` (stereo not shown) [Example 168, 1-(4-{[6-(5-chloro-2-fluorophenyl)-3-methylpyridazin-4-yl]amino}quinolin-7-yl) 3-oxetan-3-yl 4-[2-(1-methylpiperidin-4-yl)ethyl]piperazine-1,3-dicarboxylate] had a pIC50 of 8.30 to 9.00.

Still in this assay, the particulars now being: purified recombinant human ALK5 2.6 nM, TGFβ1 peptide substrate, 25° C, 150 min incubation, ADP-Glo detection; read-out: ALK5 IC50.
On to `Cc1nnc(-c2cc(Cl)ccc2F)cc1Nc1ccnc(NC(=O)NCCN2CCN(C)CC2)c1` [Example 141, 1-(4-{[6-(5-Chloro-2-Fluorophenyl)-3-Methylpyridazin-4-Yl]Amino}Pyridin-2-Yl)-3-[2-(4-Methylpiperazin-1-Yl)Ethyl]Urea], for which the pIC50 was greater than 9.00.

Turning to `Cc1nnc(-c2cc(Cl)ccc2F)cc1Nc1ccnc(NC(=O)CN2CC3(CN(C)C3)C2)c1` [Example 143, N-(4-{[6-(5-Chloro-2-Fluorophenyl)-3-Methylpyridazin-4-Yl]Amino}Pyridin-2-Yl)-2-{6-Methyl-2,6-Diazaspiro[3.3]Heptan-2-Yl}Acetamide], the pIC50 was greater than 9.00. Consider `Cc1nnc(-c2cc(Cl)ccc2F)cc1Nc1ccnc(NC(=O)CN2CCN(C)C3(CC3)C2)c1` [Example 144, N-(4-{[6-(5-Chloro-2-Fluorophenyl)-3-Methylpyridazin-4-Yl]Amino}Pyridin-2-Yl)-2-{4-Methyl-4,7-Diazaspiro[2.5]Octan-7-Yl}Acetamide], for which the pIC50 was greater than 9.00. Regarding `Cc1nnc(-c2cc(Cl)ccc2F)cc1Nc1ccnc(NC(=O)CCN2CCN(C)C(C)C2)c1` (stereo not shown) [Example 145, N-(4-{[6-(5-Chloro-2-Fluorophenyl)-3-Methylpyridazin-4-Yl]Amino}Pyridin-2-Yl)-3-(3,4-Dimethylpiperazin-1-Yl)Propanamide], the pIC50 is greater than 9.00. Turning to `Cc1nnc(-c2cc(Cl)ccc2F)cc1Nc1ccnc(NC(=O)CCN2CC3CC(C2)N3C)c1` [Example 146, N-(4-{[6-(5-Chloro-2-Fluorophenyl)-3-Methylpyridazin-4-Yl]Amino}Pyridin-2-Yl)-3-{6-Methyl-3,6-Diazabicyclo[3.1.1]Heptan-3-Yl}Propanamide], the pIC50 was greater than 9.00. As for `Cc1nnc(-c2cc(Cl)ccc2F)cc1Nc1ccnc(NC(=O)CCN2CCOC3(CN(C)C3)C2)c1` [Example 147, N-(4-{[6-(5-chloro-2-fluorophenyl)-3-methylpyridazin-4-yl]amino}pyridin-2-yl)-3-{2-methyl-5-oxa-2,8-diazaspiro[3.5]nonan-8-yl}propanamide], the pIC50 was greater than 9.00. For `CN1CCN(CCOc2cc3nccc(Nc4cnnc(-c5cc(Cl)ccc5F)c4)c3cc2O)CC1` [Example 148, 4-{[6-(5-Chloro-2-Fluorophenyl)Pyridazin-4-Yl]Amino}-7-[2-(4-Methylpiperazin-1-Yl)Ethoxy]Quinolin-6-Ol], the pIC50 was greater than 9.00. Turning to `Cc1nnc(-c2cc(Cl)ccc2F)cc1Nc1ccnc(NC(=O)N2CCC3(CC2)CN(C)C3)c1` [Example 149, N-(4-{[6-(5-Chloro-2-Fluorophenyl)-3-Methylpyridazin-4-Yl]Amino}Pyridin-2-Yl)-2-Methyl-2,7-Diazaspiro[3.5]Nonane-7-Carboxamide], the pIC50 was greater than 9.00.

Turning to `Cc1nnc(-c2cc(Cl)ccc2F)cc1Nc1ccnc(NC(=O)N2CCC3(CCN(C)C3)CC2)c1` [Example 150, N-(4-{[6-(5-Chloro-2-Fluorophenyl)-3-Methylpyridazin-4-Yl]Amino}Pyridin-2-Yl)-2-Methyl-2,8-Diazaspiro[4.5]Decane-8-Carboxamide], the pIC50 was greater than 9.00. Consider `Cc1nnc(-c2cc(Cl)c(F)cc2F)cc1Nc1ccnc(NC(=O)CCN2CCN(C)CC2)c1` [Example 151, N-(4-{[6-(5-chloro-2,4-difluorophenyl)-3-methylpyridazin-4-yl]amino}pyridin-2-yl)-3-(4-methylpiperazin-1-yl)propanamide], for which the pIC50 is greater than 9.00.

Regarding `Cc1nnc(-c2cc(Cl)ccc2F)cc1Nc1ccnc2cc(OC(=O)N3CC(N4CCCC4)C3)ccc12` [Example 152, 4-{[6-(5-Chloro-2-Fluorophenyl)-3-Methylpyridazin-4-Yl]Amino}Quinolin-7-Yl 3-(Pyrrolidin-1-Yl)Azetidine-1-Carboxylate], the pIC50 was greater than 9.00. As for `Cc1nnc(-c2cc(Cl)ccc2F)cc1Nc1ccnc2cc(OC(=O)N3CCC(N4CCC4)CC3)ccc12` [Example 153, 4-{[6-(5-Chloro-2-Fluorophenyl)-3-Methylpyridazin-4-Yl]Amino}Quinolin-7-Yl 4-(Azetidin-1-Yl)Piperidine-1-Carboxylate], the negative-log IC50 (pIC50) is greater than 9.00.

Consider `Cc1nnc(-c2cc(Cl)ccc2F)cc1Nc1ccnc(NC(=O)CN2CCCNCC2)c1` [Example 154, N-(4-{[6-(5-Chloro-2-Fluorophenyl)-3-Methylpyridazin-4-Yl]Amino}Pyridin-2-Yl)-2-(1,4-Diazepan-1-Yl)Acetamide], for which the pIC50 was greater than 9.00. For the molecule `CNCCn1cc(C(=O)Nc2cc(Nc3cc(-c4cc(Cl)ccc4F)nnc3C)ccn2)cn1` [Example 155, N-(4-{[6-(5-Chloro-2-Fluorophenyl)-3-Methylpyridazin-4-Yl]Amino}Pyridin-2-Yl)-1-[2-(Methylamino)Ethyl]-1H-Pyrazole-4-Carboxamide], the pIC50 is greater than 9.00. As to `Cc1nnc(-c2cc(Cl)ccc2F)cc1Nc1ccnc(NC(=O)c2cnn(CCN(C)C)c2)c1` [Example 156, N-(4-{[6-(5-Chloro-2-Fluorophenyl)-3-Methylpyridazin-4-Yl]Amino}Pyridin-2-Yl)-1-[2-(Dimethylamino)Ethyl]-1H-Pyrazole-4-Carboxamide], the pIC50 is greater than 9.00.

Consider `Cc1nnc(-c2cc(Cl)ccc2F)cc1Nc1ccnc(NC(=O)CC2CCN(C)CC2)c1` [Example 157, N-(4-{[6-(5-Chloro-2-Fluorophenyl)-3-Methylpyridazin-4-Yl]Amino}Pyridin-2-Yl)-2-(1-Methylpiperidin-4-Yl)Acetamide], for which the negative-log IC50 (pIC50) was greater than 9.00.

Turning to `Cc1nnc(-c2cc(Cl)ccc2F)cc1Nc1ccnc(NC(=O)CCCN2CCCNCC2)c1` [Example 158, N-(4-{[6-(5-Chloro-2-Fluorophenyl)-3-Methylpyridazin-4-Yl]Amino}Pyridin-2-Yl)-4-(1,4-Diazepan-1-Yl)Butanamide], the pIC50 is greater than 9.00. Consider `Cc1nnc(-c2cc(Cl)ccc2F)cc1Nc1ccnc(NC(=O)CCCN2CCCN(C)CC2)c1` [Example 161, N-(4-{[6-(5-Chloro-2-Fluorophenyl)-3-Methylpyridazin-4-Yl]Amino}Pyridin-2-Yl)-4-(4-Methyl-1,4-Diazepan-1-Yl)Butanamide], for which the pIC50 was greater than 9.00. Turning to `Cc1nnc(-c2cc(Cl)ccc2F)cc1Nc1ccnc(NC(=O)[C@H]2C[C@@H](N3CCN(C)CC3)C2)c1` [Example 162, Cis N-(4-{[6-(5-Chloro-2-Fluorophenyl)-3-Methylpyridazin-4-Yl]Amino}Pyridin-2-Yl)-3-(4-Methylpiperazin-1-Yl)Cyclobutane-1-Carboxamide], the pIC50 was greater than 9.00. As to `Cc1nnc(-c2cc(Cl)ccc2F)cc1Nc1ccnc(NC(=O)CCN2CCN(C)CC2CO)c1` (stereo not shown) [Example 163, N-(4-{[6-(5-chloro-2-fluorophenyl)-3-methylpyridazin-4-yl]amino}pyridin-2-yl)-3-[2-(hydroxymethyl)-4-methylpiperazin-1-yl]propanamide], the pIC50 was greater than 9.00. For the molecule `Cc1nnc(-c2cc(Cl)ccc2F)cc1Nc1ccnc(NC(=O)CN2CCNCC2)c1` [Example 164, N-(4-{[6-(5-Chloro-2-Fluorophenyl)-3-Methylpyridazin-4-Yl]Amino}Pyridin-2-Yl)-2-(Piperazin-1-Yl)Acetamide], the negative-log IC50 (pIC50) is greater than 9.00. On the same count and under the same terms, then `COC(=O)c1cc2c(Nc3cc(-c4cc(Cl)ccc4F)nnc3CO)ccnc2cc1OCCN1CCN(C)CC1` [Example 165, Methyl 4-{[6-(5-Chloro-2-Fluorophenyl)-3-(Hydroxymethyl)Pyridazin-4-Yl]Amino}-7-[2-(4-Methylpiperazin-1-Yl)Ethoxy]Quinoline-6-Carboxylate], with greater than 9.00. For `Cc1nnc(-c2cc(Cl)ccc2F)cc1Nc1ccnc(NC(=O)CN2CCCN(C)CC2)c1` [Example 166, N-(4-{[6-(5-Chloro-2-Fluorophenyl)-3-Methylpyridazin-4-Yl]Amino}Pyridin-2-Yl)-2-(4-Methyl-1,4-Diazepan-1-Yl)Acetamide], the pIC50 was greater than 9.00.

As to `Cc1nnc(-c2cc(Cl)ccc2F)cc1Nc1ccnc(Nc2ccn(CCN3CCN(C)CC3)n2)c1` [Example 167, N-4-[6-(5-Chloro-2-Fluorophenyl)-3-Methylpyridazin-4-Yl]-N-2-{1-[2-(4-Methylpiperazin-1-Yl)Ethyl]-1H-Pyrazol-3-Yl}Pyridine-2,4-Diamine], the negative logarithm of the IC50 (pIC50) is greater than 9.00. Consider `Cc1nnc(-c2cc(Cl)ccc2F)cc1Nc1ccnc(NC(=O)CCN2CCN(C)C(CO)C2)c1` (stereo not shown) [Example 170], for which the pIC50 is greater than 9.00. Still for that read-out and setting: the figure for `COC(=O)c1cc2c(Nc3cnnc(-c4cc(Cl)ccc4F)c3)ccnc2cc1OCCN1CCN(C)CC1` [Example 171, Methyl 4-{[6-(5-Chloro-2-Fluorophenyl)Pyridazin-4-Yl]Amino}-7-[2-(4-Methylpiperazin-1-Yl)Ethoxy]Quinoline-6-Carboxylate] is greater than 9.00. Same read-out and setting: then `Cc1nnc(-c2cc(Cl)ccc2F)cc1Nc1ccnc(NC(=O)CN2CCN(C)CC2)c1` [Example 172, N-(4-{[6-(5-Chloro-2-Fluorophenyl)-3-Methylpyridazin-4-Yl]Amino}Pyridin-2-Yl)-2-(4-Methylpiperazin-1-Yl)Acetamide], with greater than 9.00; and `CN1CCN(CCC(=O)Nc2cc(Nc3cc(-c4cc(Cl)ccc4F)nnc3C3CC3)ccn2)CC1` [Example 173], with greater than 9.00.
